Reference: article PMC7518156 (PeerJ, 2020)
Entries after “also recorded” stand apart in the source; their conditions may differ. Where two headings read alike, the source gives them in different places.

Experiment: Pharmacokinetics of ERL and GEF in Wistar rats after four weeks consumption of water or flavoured water (plasma, UPLC-MS/MS, non-compartmental analysis)
Type: in vivo
Details: for concentration at 0 h / concentration at 0.5 h / concentration at 1 h / concentration at 2 h / concentration at 3 h / concentration at 5 h / concentration at 24 h / concentration at 48 h / AUC(0-inf) / CL/F / Cmax / Tmax / AUC(0-t) / half-life / AUC: male, Wistar, rat, plasma, 20 mg/kg; for Tmax: read-out: tmax; for AUC(0-t): read-out: AUC0-48; for half-life: read-out: t½ (converted)
Description: Fifty healthy male Wistar rats weighing 250 ± 30 g were obtained from the animal house, College of Pharmacy, King Saud University, Riyadh, Saudi Arabia. Rats were randomly divided into ten cages (n = 5). All individualized ventilated cages (IVC) type IV used in this study were of 20″L × 11″W × 9″ in dimension capable of hosting 4–5 rats. Cages density, bedding, and sanitation frequency was similar in all cages. Cages were housed at room temperature (25 °C) and at an average relative humidity of 50%. Daily observation of all rats was required to ensure that all animals maintained good health. All animal experiments strictly followed the guidelines of the Ethical Committee for Performing Studies on Animals, King Saud University, Riyadh, Saudi Arabia, protocol number KSU-SE-19-13.
Four types of FW, (Aquafina®, a product of Pepsi-Cola®, Saudi Industrial Projects Company, Jeddah, Saudi Arabia) with different flavours, specifically berry (group II), peach (group III), lime (group IV), and pineapple FW (group V) were used. Other components found in FW used in this study include water, preservatives (sodium phosphate, potassium sorbet, sodium benzoate), acidifiers (citric acid, maleic acid), sweeteners (aspartame, potassium acesulfame, allose), acidity regulator (sodium citrate), and antioxidant agent (calcium disodium EDTA). […] The parallel design was used in this study to avoid animals’ physiological changes that could occur in the cross-over design, possibly affecting PK profiles of drug substances. All animals involved in the study were deprived from food, but not water/FW, for at least 12 h before drug administration. […] Drugs were administered to the rats between 7:00 am and 8:00 am. Rats were separately weighed from day one of water/FW consumption prior to drug administration for accurate dose calculation (Fig. S1). Blood samples (0.3 mL) were collected from each rat immediately prior to dosing (0 time) and at predetermined time points (0.5, 1, 2, 3, 5, 24, and 48 h) post drug administration. Blood samples were withdrawn and processed as described previously ([Maher et al., 2017]; [Maher, Alzoman & Shehata, 2016]; [Maher, Alzoman & Shehata, 2018]). Specifically, blood samples were withdrawn from the retro-orbital sinus into a series of heparinized tubes. Plasma was separated from collected blood samples by centrifugation at 4,500 rpm for 30 min where the centrifuge was maintained at 4 °C, and then stored at −20 °C until the day of analysis. […] A mixture of acetonitrile: water (80: 20, v/v), with 0.1% formic acid was used as a mobile phase at a flow rate of 0.2 mL/min ([Maher, Alzoman & Shehata, 2016]).
Cmax and tmax were obtained from the corresponding plasma concentration–time curve (Figs. 1A and 1B). […] The area under the plasma concentration–time curve from time 0 to the last sampling time t, 48 h (AUC0–t) was calculated using the trapezoidal rule. […] AUC0–∞ was also derived by summing up AUC0–t andthe area obtained by extrapolation from time t to ∞. The latter area was calculated from the division of the last measured concentration (Clast) by λz.
Results were presented as mean ± SD. PK parameters of all treated groups following the consumption of FW were compared with control (rats having free access to water), using one-way ANOVA and Bonferroni’s multiple comparisons test. Statistical significance was obtained with p-values ≤ 0.05.

[1] = oral, PKSolver sheet, dose 20 mg/kg, +Berry, read-out: Conc
[2] = oral, PKSolver sheet, dose 20 mg/kg, +Lime, read-out: Conc
[3] = oral, PKSolver sheet, dose 20 mg/kg, +Peach, read-out: Conc
[4] = oral, PKSolver sheet, dose 20 mg/kg, +Pineapple, read-out: Conc
[5] = oral, PKSolver sheet, dose 20 mg/kg, drug alone (water), read-out: Conc
[6] = po, rats, 20 mg/kg oral, +Berry FW, average, read-out: Conc*10 (ng/mL plasma)
[7] = po, rats, 20 mg/kg oral, +Lime FW, average, read-out: Conc*10 (ng/mL plasma)
[8] = po, rats, 20 mg/kg oral, +Peach FW, average, read-out: Conc*10 (ng/mL plasma)
[9] = po, rats, 20 mg/kg oral, +Pineapple FW, average, read-out: Conc*10 (ng/mL plasma)
[10] = po, rats, 20 mg/kg oral, drug alone (water), average, read-out: Conc*10 (ng/mL plasma)
[11] = po, rats, 20 mg/kg oral, four weeks berry FW, n = 5, mean (SD)
[12] = po, rats, 20 mg/kg oral, four weeks peach FW, n = 5, mean (SD)
[13] = po, rats, 20 mg/kg oral, four weeks pineapple FW, n = 5, mean (SD)
[14] = po, rats, 20 mg/kg oral, water (control), n = 5, mean (SD)
[15] = po, raw data sheet, from average profile, +Berry FW
[16] = po, raw data sheet, from average profile, +Lime FW
[17] = po, raw data sheet, from average profile, +Peach FW
[18] = po, raw data sheet, from average profile, +Pineapple FW
[19] = po, raw data sheet, from average profile, drug alone (water)
[20] = rats, berry FW relative to control (water)
[21] = rats, lime FW relative to control (water)
[22] = rats, peach FW relative to control (water)
[23] = rats, pineapple FW relative to control (water)
[24] = raw data sheet, +Berry FW vs drug alone
[25] = raw data sheet, +Lime FW vs drug alone
[26] = raw data sheet, +Peach FW vs drug alone
[27] = raw data sheet, +Pineapple FW vs drug alone

SMILES: C#Cc1cccc(Nc2ncnc3cc(OCCOC)c(OCCOC)cc23)c1 [ERL, Erlotinib]
- concentration at 0 h [1]: 6.83 ng/mL
- concentration at 0.5 h [1]: 46.3 ng/mL
- concentration at 1 h [1]: 76.7 ng/mL
- concentration at 2 h [1]: 92.4 ng/mL
- concentration at 3 h [1]: 110 ng/mL
- concentration at 5 h [1]: 45.6 ng/mL
- concentration at 24 h [1]: 11.9 ng/mL
- concentration at 48 h [1]: 8.18 ng/mL
- concentration at 0 h [2]: 19.8 ng/mL
- concentration at 0.5 h [2]: 164 ng/mL
- concentration at 1 h [2]: 103 ng/mL
- concentration at 2 h [2]: 73.3 ng/mL
- concentration at 3 h [2]: 57.6 ng/mL
- concentration at 5 h [2]: 42.2 ng/mL
- concentration at 24 h [2]: 32.1 ng/mL
- concentration at 48 h [2]: 25.1 ng/mL
- concentration at 0 h [3]: 5.49 ng/mL
- concentration at 0.5 h [3]: 67.8 ng/mL
- concentration at 1 h [3]: 81.7 ng/mL
- concentration at 2 h [3]: 111 ng/mL
- concentration at 3 h [3]: 43.2 ng/mL
- concentration at 5 h [3]: 18.2 ng/mL
- concentration at 24 h [3]: 11.4 ng/mL
- concentration at 48 h [3]: 9.85 ng/mL
- concentration at 0 h [4]: 10.6 ng/mL
- concentration at 0.5 h [4]: 22.3 ng/mL
- concentration at 1 h [4]: 36.6 ng/mL
- concentration at 2 h [4]: 120 ng/mL
- concentration at 3 h [4]: 45.3 ng/mL
- concentration at 5 h [4]: 20.9 ng/mL
- concentration at 24 h [4]: 15.8 ng/mL
- concentration at 48 h [4]: 14 ng/mL
- concentration at 0 h [5]: 9.48 ng/mL
- concentration at 0.5 h [5]: 44.5 ng/mL
- concentration at 1 h [5]: 105 ng/mL
- concentration at 2 h [5]: 48.2 ng/mL
- concentration at 3 h [5]: 29.7 ng/mL
- concentration at 5 h [5]: 23.2 ng/mL
- concentration at 24 h [5]: 12.3 ng/mL
- concentration at 48 h [5]: 9.77 ng/mL
- concentration at 0 h [6]: 6.83 ng/mL
- concentration at 0.5 h [6]: 46.3 ng/mL
- concentration at 1 h [6]: 76.7 ng/mL
- concentration at 2 h [6]: 92.4 ng/mL
- concentration at 3 h [6]: 110 ng/mL
- concentration at 5 h [6]: 45.6 ng/mL
- concentration at 24 h [6]: 11.9 ng/mL
- concentration at 48 h [6]: 8.18 ng/mL
- concentration at 0 h [7]: 19.8 ng/mL
- concentration at 0.5 h [7]: 164 ng/mL
- concentration at 1 h [7]: 103 ng/mL
- concentration at 2 h [7]: 73.3 ng/mL
- concentration at 3 h [7]: 57.6 ng/mL
- concentration at 5 h [7]: 42.2 ng/mL
- concentration at 24 h [7]: 32.1 ng/mL
- concentration at 48 h [7]: 25.1 ng/mL
- concentration at 0 h [8]: 5.49 ng/mL
- concentration at 0.5 h [8]: 67.8 ng/mL
- concentration at 1 h [8]: 81.7 ng/mL
- concentration at 2 h [8]: 111 ng/mL
- concentration at 3 h [8]: 43.2 ng/mL
- concentration at 5 h [8]: 18.2 ng/mL
- concentration at 24 h [8]: 11.4 ng/mL
- concentration at 48 h [8]: 9.85 ng/mL
- concentration at 0 h [9]: 10.6 ng/mL
- concentration at 0.5 h [9]: 22.3 ng/mL
- concentration at 1 h [9]: 36.6 ng/mL
- concentration at 2 h [9]: 120 ng/mL
- concentration at 3 h [9]: 45.3 ng/mL
- concentration at 5 h [9]: 20.9 ng/mL
- concentration at 24 h [9]: 15.8 ng/mL
- concentration at 48 h [9]: 14 ng/mL
- concentration at 0 h [10]: 9.48 ng/mL
- concentration at 0.5 h [10]: 44.5 ng/mL
- concentration at 1 h [10]: 105 ng/mL
- concentration at 2 h [10]: 48.2 ng/mL
- concentration at 3 h [10]: 29.7 ng/mL
- concentration at 5 h [10]: 23.2 ng/mL
- concentration at 24 h [10]: 12.3 ng/mL
- concentration at 48 h [10]: 9.77 ng/mL
- AUC(0-inf) [11]: 1380 ng·h/mL
- CL/F [11]: 241 mL/min/kg
- Cmax [11]: 111 ng/mL
- Tmax (po, rats, 20 mg/kg oral, four weeks lime FW, n = 5, mean (SD)): 0.51 h
- AUC(0-inf) [12]: 1530 ng·h/mL
- CL/F [12]: 219 mL/min/kg
- AUC(0-t) [12]: 827 ng·h/mL
- Cmax [13]: 120 ng/mL
- AUC(0-t) [13]: 942 ng·h/mL
- AUC(0-inf) [14]: 1320 ng·h/mL
- CL/F [14]: 253 mL/min/kg
- Cmax [14]: 106 ng/mL
- AUC(0-t) [14]: 827 ng·h/mL
- Tmax [14]: 1.02 h
- half-life [14]: 35.1 h
- AUC [15]: 1330 ng·h/mL
- Cmax [15]: 110 ng/mL
- Tmax [15]: 3 h
- half-life [15]: 13.3 h
- AUC [16]: 3340 ng·h/mL
- Cmax [16]: 164 ng/mL
- Tmax [16]: 0.5 h
- half-life [16]: 43.6 h
- AUC [17]: 1210 ng·h/mL
- Cmax [17]: 111 ng/mL
- Tmax [17]: 2 h
- half-life [17]: 27 h
- AUC [18]: 1670 ng·h/mL
- Cmax [18]: 120 ng/mL
- Tmax [18]: 2 h
- half-life [18]: 35.6 h
- AUC [19]: 1240 ng·h/mL
- Cmax [19]: 105 ng/mL
- Tmax [19]: 1 h
- half-life [19]: 29.4 h
- decrease in t1/2 [20]: ~49%
- effect on exposure (AUC0–48) [20]: significantly affected
- increase in AUC0–48 [20]: 42.35%
- increase in tmax [20]: three times increase
- decrease in apparent oral clearance (CL/F) [21]: 65%
- decrease in tmax [21]: not statistically significant
- increase in AUC0–∞ [21]: 200%
- increase in Cmax [21]: 95%
- increase in t1/2 [21]: ~65%
- effect on Cmax, AUC0–48, AUC0–∞, and CL/F [22]: no significant effect
- effect on PK parameters (overall) [22]: minimum effect; also recorded: least effect; also recorded: nearly negligible effect
- increase in t1/2 [22]: about 41%
- increase in tmax [22]: two times increase
- increase in AUC0–∞ [23]: 86%
- increase in t1/2 [23]: ~113.8%
- increase in tmax [23]: two times increase
- % change FOR AREA [24]: 7% FOR AREA
- % change FOR C MAX [24]: 5% FOR C MAX
- % change FOR AREA [25]: 170% FOR AREA
- % change FOR C MAX [25]: 56% FOR C MAX
- % change FOR AREA [26]: -2% FOR AREA
- % change FOR C MAX [26]: 6% FOR C MAX
- % change FOR AREA [27]: 35% FOR AREA
- % change FOR C MAX [27]: 13% FOR C MAX
